Data set [1] addresses T1, human progesterone receptor B (Homo sapiens, UniProt P06401).
T1 construct: expressed in transfected cells; host or cells: SK-N-MC human neuroblastoma cells, stably transfected with pRChPR-B-neo and pMMTV-LUC
T1 sequence (P06401 1-933): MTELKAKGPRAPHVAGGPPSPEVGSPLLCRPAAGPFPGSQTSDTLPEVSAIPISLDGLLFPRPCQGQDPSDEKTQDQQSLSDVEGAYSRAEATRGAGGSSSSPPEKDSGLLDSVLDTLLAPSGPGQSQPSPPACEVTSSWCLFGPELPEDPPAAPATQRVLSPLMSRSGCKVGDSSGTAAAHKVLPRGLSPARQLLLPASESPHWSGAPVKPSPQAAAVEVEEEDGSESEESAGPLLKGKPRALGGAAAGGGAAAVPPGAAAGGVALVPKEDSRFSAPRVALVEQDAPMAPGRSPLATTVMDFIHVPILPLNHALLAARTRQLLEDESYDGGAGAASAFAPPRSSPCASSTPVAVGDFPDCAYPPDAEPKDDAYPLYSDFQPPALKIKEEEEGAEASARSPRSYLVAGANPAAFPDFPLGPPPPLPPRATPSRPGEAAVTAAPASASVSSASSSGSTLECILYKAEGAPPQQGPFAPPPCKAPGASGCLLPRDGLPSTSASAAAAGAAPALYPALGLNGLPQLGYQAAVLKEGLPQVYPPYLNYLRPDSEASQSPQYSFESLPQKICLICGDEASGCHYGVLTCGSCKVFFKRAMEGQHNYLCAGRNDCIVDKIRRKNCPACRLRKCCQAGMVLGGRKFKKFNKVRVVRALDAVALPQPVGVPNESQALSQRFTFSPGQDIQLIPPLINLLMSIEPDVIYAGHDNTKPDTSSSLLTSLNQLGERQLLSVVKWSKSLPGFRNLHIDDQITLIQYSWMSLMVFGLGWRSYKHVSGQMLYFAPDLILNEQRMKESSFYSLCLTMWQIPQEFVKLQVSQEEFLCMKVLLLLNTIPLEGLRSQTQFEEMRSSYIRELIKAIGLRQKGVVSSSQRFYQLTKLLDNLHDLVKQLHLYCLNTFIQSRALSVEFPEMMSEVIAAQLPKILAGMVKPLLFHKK
As to the kind of experiment: Progesterone receptor-antagonistic action in stably transfected SK-N-MC cells, MMTV-LUC reporter (PR-B). In kind it is cell-based. Conditions: antagonistic potency vs 0.1 nmol/l promegestone, 24 hours. The gist of the method:
(§1)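 Stably transfected SK-N-MC cells express human PR-B or PR-A plus MMTV-LUC. For antagonism they were co-treated with 0.1 nmol/l promegestone and compound (0.01 nmol/l upward) for 24 hours. Luciferase in lysates was read as RLU and reported as % efficacy and IC50.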

Data set [2] can be described thus: Metabolic stability in rat liver microsomes. Format: in vitro ADME. To be noted: calculated from liver microsome clearance. On the procedure:
Determination of Metabolic Stability in Human and Rat Liver Microsomes
The incubations were conducted with 2.4 ml of HLM solution (protein content 0.5 mg/ml), 30 μl of the test compound (final concentration 1 μM) and 0.6 ml of the cofactor mixture (=NADPH-generating system composed of 3 IU glucose-6-phosphate dehydrogenase, 14.6 mg glucose-6-phosphate, 1.2 mg NADP) at 37° C. in 100 mM phosphate buffer at pH 7.4. Samples were taken at 6 time points (2-60 min) and precipitated with an equal volume of methanol, and the recovery of the test substances used in the supernatant was determined by LC-MS/MS analysis. The half-life of substance degradation determined therefrom was used to calculate what is called the intrinsic clearance of the substance in the liver microsome preparation. […] In addition, under the assumptions that (i) absorption of the test substance is 100%, and (ii) the first pass is completely reflected by liver microsome metabolism, a maximum oral bioavailability (Fmax) was calculated.

Data set [3] deals with T2, human progesterone receptor A (Homo sapiens, UniProt P06401).
T2 construct: expressed in transfected cells; host or cells: SK-N-MC human neuroblastoma cells, stably transfected with pRChPR-A-neo and pMMTV-LUC
T2 sequence (P06401 1-769 isoform P06401-2): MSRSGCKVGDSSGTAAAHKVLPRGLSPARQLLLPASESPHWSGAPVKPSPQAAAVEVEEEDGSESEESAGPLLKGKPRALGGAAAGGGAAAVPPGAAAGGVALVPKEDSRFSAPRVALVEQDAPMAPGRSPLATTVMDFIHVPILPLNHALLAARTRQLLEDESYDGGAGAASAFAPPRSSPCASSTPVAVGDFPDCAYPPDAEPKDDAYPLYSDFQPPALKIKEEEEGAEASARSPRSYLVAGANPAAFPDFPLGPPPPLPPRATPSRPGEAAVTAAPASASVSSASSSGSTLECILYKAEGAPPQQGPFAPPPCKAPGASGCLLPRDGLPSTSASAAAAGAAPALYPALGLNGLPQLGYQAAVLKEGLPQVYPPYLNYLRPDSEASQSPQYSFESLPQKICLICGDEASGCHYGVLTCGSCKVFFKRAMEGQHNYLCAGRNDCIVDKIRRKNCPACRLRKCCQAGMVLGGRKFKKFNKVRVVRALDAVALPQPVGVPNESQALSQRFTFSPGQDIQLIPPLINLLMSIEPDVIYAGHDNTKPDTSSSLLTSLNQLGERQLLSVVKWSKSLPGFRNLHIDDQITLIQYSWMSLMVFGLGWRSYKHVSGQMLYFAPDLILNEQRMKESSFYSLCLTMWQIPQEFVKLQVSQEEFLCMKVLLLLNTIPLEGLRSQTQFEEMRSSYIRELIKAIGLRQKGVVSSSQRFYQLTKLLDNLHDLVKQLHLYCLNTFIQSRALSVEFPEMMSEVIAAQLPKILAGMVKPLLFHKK
Description: Progesterone receptor-antagonistic action in stably transfected SK-N-MC cells, MMTV-LUC reporter (PR-A). In kind it is cell-based. To be noted: antagonistic potency vs 0.1 nmol/l promegestone, 24 hours. The gist of the method:
as §1

Broadly, the IC50 is the point on the concentration scale where inhibition reaches its midpoint.

In the case of `C[C@]12C[C@H](c3ccc(CCc4ccccn4)cc3)C3=C4CCC(=O)C=C4CC[C@H]3[C@@H]1CC[C@@]2(O)C(F)(F)C(F)(F)F` [Example 2, (8S,11R,13S,14S,17S)-17-hydroxy-13-methyl-17-pentafluoroethyl-11-[4-(2-pyridin-2-ylethyl)phenyl]-1,2,6,7,8,11,12,13,14,15,16,17-dodecahydrocyclopenta[a]phenanthren-3-one], the IC50 in data set [1] turned out to be 110 pM; in data set [3], 95 pM. Further, the “Predicted Fmax (maximum oral bioavailability)” value (“Predicted Fmax” below) in data set [2] is on record as 18%.
The matching figures for `C[C@]12C[C@H](c3ccc(CCC#N)cc3)C3=C4CCC(=O)C=C4CC[C@H]3[C@@H]1CC[C@@]2(O)C(F)(F)C(F)(F)F` [Example 9, 3-[4-((8S,11R,13S,14S,17S)-17-hydroxy-13-methyl-3-oxo-17-pentafluoroethyl-2,3,6,7,8,11,12,13,14,15,16,17-dodecahydro-1H-cyclopenta[a]phenanthren-11-yl)phenyl]propionitrile]: 100 pM, 60 pM and 4.9%.
In the case of `C[C@]12C[C@H](c3ccc(CNC(=O)NCc4ccccc4)cc3)C3=C4CCC(=O)C=C4CC[C@H]3[C@@H]1CC[C@@]2(O)C(F)(F)C(F)(F)F` [Example 23, 1-benzyl-3-[4-((8S,11R,13S,14S,17S)-17-hydroxy-13-methyl-3-oxo-17-pentafluoroethyl-2,3,6,7,8,11,12,13,14,15,16,17-dodecahydro-1H-cyclopenta[a]phenanthren-11-yl)benzyl]urea], the IC50 in data set [1] turned out to be 800 pM; in data set [3], 300 pM. In data set [2], the “Predicted Fmax” value is given as 29%.
Turning to `C[C@]12C[C@H](c3ccc(CCc4cccnc4)cc3)C3=C4CCC(=O)C=C4CC[C@H]3[C@@H]1CC[C@@]2(O)C(F)(F)C(F)(F)F` [Example 7, (8S,11R,13S,14S,17S)-17-hydroxy-13-methyl-17-pentafluoroethyl-11-[4-(2-pyridin-3-ylethyl)phenyl]-1,2,6,7,8,11,12,13,14,15,16,17-dodecahydrocyclopenta[a]phenanthren-3-one], the IC50 in data set [1] amounted to 90 pM; in data set [3], 80 pM. In addition, in data set [2], the “Predicted Fmax” value is listed as 20%.
The matching figures for `Cc1nc(CCc2ccc([C@H]3C[C@@]4(C)[C@@H](CC[C@@]4(O)C(F)(F)C(F)(F)F)[C@@H]4CCC5=CC(=O)CCC5=C43)cc2)cs1` [Example 3, (8S,11R,13S,14S,17S)-17-hydroxy-13-methyl-11-{4-[2-(2-methylthiazol-4-yl)ethyl]phenyl}-17-pentafluoroethyl-1,2,6,7,8,11,12,13,14,15,16,17-dodecahydrocyclopenta[a]phenanthren-3-one]: 40 pM, 90 pM and 15%.
For the molecule `Cc1ccc(NC(=O)OCc2ccc([C@H]3C[C@@]4(C)[C@@H](CC[C@@]4(O)C(F)(F)C(F)(F)F)[C@@H]4CCC5=CC(=O)CCC5=C43)cc2)cc1` [Example 48, (4-methylphenyl)carbamic acid 4-((8S,11R,13S,14S,17S)-17-hydroxy-13-methyl-3-oxo-17-pentafluoroethyl-2,3,6,7,8,11,12,13,14,15,16,17-dodecahydro-1H-cyclopenta[a]phenanthren-11-yl)benzyl ester], the values for the IC50 in data set [1] and in data set [3] were 200 pM and 70 pM, respectively.
With `C[C@]12C[C@H](c3ccc(CCc4ccncc4)cc3)C3=C4CCC(=O)C=C4CC[C@H]3[C@@H]1CC[C@@]2(O)C(F)(F)C(F)(F)F` [Example 8, (8S,11R,13S,14S,17S)-17-hydroxy-13-methyl-17-pentafluoroethyl-11-[4-(2-pyridin-4-ylethyl)phenyl]-1,2,6,7,8,11,12,13,14,15,16,17-dodecahydrocyclopenta[a]phenanthren-3-one], the values for the IC50 in data set [1] and in data set [3] were 90 pM and 80 pM, respectively. The “Predicted Fmax” value in data set [2] is reported as 19%.
As for `CC(C)NC(=O)OCc1ccc([C@H]2C[C@@]3(C)[C@@H](CC[C@@]3(O)C(F)(F)C(F)(F)F)[C@@H]3CCC4=CC(=O)CCC4=C32)cc1` [Example 42, isopropylcarbamic acid 4-((8S,11R,13S,14S,17S)-17-hydroxy-13-methyl-3-oxo-17-pentafluoroethyl-2,3,6,7,8,11,12,13,14,15,16,17-dodecahydro-1H-cyclopenta[a]phenanthren-11-yl)benzyl ester], the IC50 in data set [1] turned out to be 200 pM; in data set [3], 100 pM.
For the molecule `C[C@]12C[C@H](c3ccc(CNC(=O)Nc4ccccc4)cc3)C3=C4CCC(=O)C=C4CC[C@H]3[C@@H]1CC[C@@]2(O)C(F)(F)C(F)(F)F` [Example 24, 1-[4-((8S,11R,13S,14S,17S)-17-hydroxy-13-methyl-3-oxo-17-pentafluoroethyl-2,3,6,7,8,11,12,13,14,15,16,17-dodecahydro-1H-cyclopenta[a]phenanthren-11-yl)benzyl]-3-phenyl urea], the figures for the IC50 in data set [1] and in data set [3] were 500 pM and 400 pM, respectively. For the same molecule, in data set [2], the “Predicted Fmax” value was 77%.
In the case of `CCNC(=O)NCc1ccc([C@H]2C[C@@]3(C)C(CC[C@@]3(O)C(F)(F)C(F)(F)F)C3CCC4=CC(=O)CCC4=C32)cc1` (stereo partly drawn) [Example 17, 1-ethyl-3-[4-((8S,11R,13S,14S,17S)-17-hydroxy-13-methyl-3-oxo-17-pentafluoroethyl-2,3,6,7,8,11,12,13,14,15,16,17-dodecahydro-M-cyclopenta[a]phenanthren-11-yl)benzyl]urea], the IC50 was found to be 800 pM in data set [1] and 400 pM in data set [3]. Moreover, the “Predicted Fmax” value in data set [2] is 63%.
The like results for `CCNC(=O)OCc1ccc([C@H]2C[C@@]3(C)[C@@H](CC[C@@]3(O)C(F)(F)C(F)(F)F)[C@@H]3CCC4=CC(=O)CCC4=C32)cc1` [Example 41, ethylcarbamic acid 4-((8S,11R,13S,14S,17S)-17-hydroxy-13-methyl-3-oxo-17-pentafluoroethyl-2,3,6,7,8,11,12,13,14,15,16,17-dodecahydro-1H-cyclopenta[a]phenanthren-11-yl)benzyl ester] were, in that order, 100 pM, 90 pM and 49%.

The record behind these values is US9206219B2, “17-hydroxy-17-pentafluorethyl-estra-4,9(10)-dien-11-aryl derivatives, methods for the production thereof and the use thereof for treating diseases” (Bayer Intellectual Property GmbH, priority 2009, dated 2015).
